From US4404209A, “Analgesic mixture of nalbuphine and sulindac” (E. I. Du Pont de Nemours and Company, priority 1982, dated 1983)
Like-named read-outs stand apart in the source and are kept apart here.

Test system: phenyl-p-benzoquinone induced writhing in mice
Settings: oral; for % mice blocked: 40 min
Protocol: The phenyl-p-benzoquinone induced writhing test in mice [H. Blumberg et al., Proc. Soc. […] The method simply consists of reading the % ED50 DOSE for each dose ratio on the best fit regression analysis curve from the mouse isobologram, multiplying each component by its effective species dose, and then forming the ratio of the amount of nalbuphine to sulindac. […] [E. W. Pelikan, The Pharmacologist, 1, 73 (1959).]
The mixture is sonicated at 150 watts for 1-2 minutes with an ultrasound system, then shaken for two hours at 280 oscillations/minute with 15-20 gm of glass beads. The resultant suspension contains 16 mg/ml of sulindac; all dosing suspensions are prepared by dilution of the stock suspension with the Methocel®/Tween 80® vehicle; the vehicle control is Methocel®/Tween 80®. All suspensions are prepared fresh daily.
Each mouse is used only once, then discarded.
In order to study the interaction between nalbuphine and sulindac, 5 precise dosage ratios of nalbuphine hydrochloride and sulindac are selected.

SMILES | % mice blocked (nalbuphine HCl 0, sulindac 4.75 mg/kg) | % mice blocked (nalbuphine HCl 0, sulindac 9.5 mg/kg) | % mice blocked (nalbuphine HCl 0, sulindac 19.0 mg/kg) | % mice blocked (nalbuphine HCl 0, sulindac 38.0 mg/kg) | ED50 at 40 min, sulindac (95% confidence limits) (mouse, sulindac dose, alone or as component of the fixed-ratio combination) | % mice blocked (nalbuphine HCl 5.45 mg/kg, sulindac 0) | % mice blocked (nalbuphine HCl 10.9 mg/kg, sulindac 0) | % mice blocked (nalbuphine HCl 21.8 mg/kg, sulindac 0) | % mice blocked (nalbuphine HCl 43.6 mg/kg, sulindac 0) | % mice blocked (nalbuphine HCl 87.2 mg/kg, sulindac 0) | ED50 at 40 min, nalbuphine HCl (95% confidence limits) (mouse, nalbuphine HCl dose, alone or as component of the fixed-ratio combination)
CC1=C(CC(=O)O)c2cc(F)ccc2/C1=C\c1ccc([S+](C)[O-])cc1 (centres unmarked) [Sulindac, (Z)-5-fluoro-2-methyl-1-{[4-(methylsulfinyl)phenyl]methylene}-1H-indene-3-acetic acid] | 20.0% | 20.0% | 46.7% | 96.7% | 21.2 mg/kg | – | – | – | – | – | –
Oc1ccc2c3c1O[C@H]1[C@@H](O)CC[C@@]4(O)[C@@H](C2)N(CC2CCC2)CC[C@]314 [Nalbuphine, (-)-17-(cyclobutylmethyl)-4,5α-epoxymorphinan-3,6α,14-triol] | – | – | – | – | – | 16.7% | 40.0% | 36.7% | 63.3% | 90.0% | 30.8 mg/kg
